Values quoted from earlier work, collected in patent US8283154B2, “Method of decontaminating polluted environments with bacteria on a porous support” (National Institute for Agro-Environmental Sciences …, priority 2005, dated 2012).

Question: With `Clc1c(Cl)c(Cl)c(Cl)c(Cl)c1Cl` [HCB, hexachlorobenzene] as the compound, how does the aqueous solubility read?
Answer: The aqueous solubility was 0.005 ppm.
